Measurements published in ChEMBL document CHEMBL1806420, “Design, synthesis and antimycobacterial evaluation of novel 3-substituted-N-aryl-6,7-dimethoxy-3a,4-dihydro-3H-indeno[1,2-c]pyrazole-2-carboxamide analogues” (Bioorg Med Chem Lett, 2011).
Values after ≈ are worked out from the molar mass of the structure shown.

Assays:
[1] = system: Mycobacterium tuberculosis; test: Antimycobacterial activity against Mycobacterium tuberculosis H37Rv by agar dilution method; type: functional
Vero = test: Cytotoxicity against african green monkey Vero cells upto 62.5 ug/ml after 72 hrs by MTT assay; type: cell-based; conditions: chlorocebus sabaeus

| Compound | MIC [1] | Activity (Vero) |
| --- | --- | --- |
| COc1cc2c(cc1OC)C1=NN(C(=O)Nc3ccc(F)c(Cl)c3)C(c3ccccc3)C1C2 (configuration not stated) | 6.25 µM (≈ 2.91 µg/mL) | Non-toxic |
| COc1ccc(C2C3Cc4cc(OC)c(OC)cc4C3=NN2C(=O)Nc2ccc(F)c(Cl)c2)cc1 (configuration not stated) | > 6.25 µM | – |
| COc1cc2c(cc1OC)C1=NN(C(=O)Nc3ccc(F)cc3)C(c3ccncc3)C1C2 (configuration not stated) | 3.12 µM (≈ 1.35 µg/mL) | Non-toxic |
| COc1cc2c(cc1OC)C1=NN(C(=O)Nc3ccc(F)cc3)C(c3ccccc3Cl)C1C2 (configuration not stated) | 6.25 µM (≈ 2.91 µg/mL) | Non-toxic |
| COc1cc2c(cc1OC)C1=NN(C(=O)Nc3ccc(F)cc3)C(c3ccc(F)cc3)C1C2 (configuration not stated) | 0.78 µM (≈ 0.351 µg/mL) | Non-toxic |
| COc1ccc(C2C3Cc4cc(OC)c(OC)cc4C3=NN2C(=O)Nc2ccc(F)cc2)cc1OC (configuration not stated) | > 10 µM | Non-toxic |
| COc1cc2c(cc1OC)C1=NN(C(=O)Nc3ccc(F)cc3)C(c3ccccc3)C1C2 (configuration not stated) | > 6.25 µM | – |
| COc1ccc(C2C3Cc4cc(OC)c(OC)cc4C3=NN2C(=O)Nc2ccc(F)cc2)cc1 (configuration not stated) | 10 µM (≈ 4.61 µg/mL) | Non-toxic |
| COc1cc2c(cc1OC)C1=NN(C(=O)Nc3ccc(Br)cc3)C(c3ccncc3)C1C2 (configuration not stated) | 6.25 µM (≈ 3.08 µg/mL) | Non-toxic |
| COc1cc2c(cc1OC)C1=NN(C(=O)Nc3ccc(Br)cc3)C(c3ccccc3Cl)C1C2 (configuration not stated) | > 6.25 µM | – |
| COc1cc2c(cc1OC)C1=NN(C(=O)Nc3ccc(Br)cc3)C(c3ccc(F)cc3)C1C2 (configuration not stated) | 3.12 µM (≈ 1.59 µg/mL) | Non-toxic |
| COc1ccc(C2C3Cc4cc(OC)c(OC)cc4C3=NN2C(=O)Nc2ccc(Br)cc2)cc1OC (configuration not stated) | > 10 µM | Non-toxic |
| COc1cc2c(cc1OC)C1=NN(C(=O)Nc3ccc(Br)cc3)C(c3ccccc3)C1C2 (configuration not stated) | > 6.25 µM | – |
| COc1ccc(C2C3Cc4cc(OC)c(OC)cc4C3=NN2C(=O)Nc2ccc(Br)cc2)cc1 (configuration not stated) | > 10 µM | Non-toxic |
| COc1cc2c(cc1OC)C1=NN(C(=O)Nc3ccc(F)c(Cl)c3)C(c3ccncc3)C1C2 (configuration not stated) | > 6.25 µM | – |
| COc1cc2c(cc1OC)C1=NN(C(=O)Nc3ccc(F)c(Cl)c3)C(c3ccccc3Cl)C1C2 (configuration not stated) | 6.25 µM (≈ 3.13 µg/mL) | Non-toxic |
| COc1cc2c(cc1OC)C1=NN(C(=O)Nc3ccc(F)c(Cl)c3)C(c3ccc(F)cc3)C1C2 (configuration not stated) | 0.78 µM (≈ 0.377 µg/mL) | Non-toxic |
| COc1ccc(C2C3Cc4cc(OC)c(OC)cc4C3=NN2C(=O)Nc2ccc(F)c(Cl)c2)cc1OC (configuration not stated) | > 6.25 µM | – |
| NNC(=O)c1ccncc1 [ISONIAZID] | 0.78 µM (≈ 0.107 µg/mL) | – |
| CO[C@H]1/C=C/O[C@@]2(C)Oc3c(C)c(O)c4c(O)c(c(/C=N/N5CCN(C)CC5)c(O)c4c3C2=O)NC(=O)/C(C)=C\C=C\[C@H](C)[C@H](O)[C@@H](C)[C@@H](O)[C@@H](C)[C@H](OC(C)=O)[C@@H]1C [RIFAMPIN] | 0.006 µM (≈ 0.00494 µg/mL) | – |
